Experiment in all cases: Glasshouse assay for herbicidal activity, pre-/post-emergence (percentage phytotoxicity)
Holding throughout (type): in vivo

The subject of one assay is Avena fatua (AVEFA). Particulars: Rate 250 g/ha, 100%=total damage, 0%=no damage; for pest or weed control at 250 g/ha: Avena fatua. On the procedure:
(§1) Seeds of a variety of monocotyledonous and dicotyledonous test plants are sown in standard soil in pots. The plants are cultivated for one day (for pre-emergence) or for about 12 days (for post-emergence) under controlled conditions in a glasshouse (warm climate species at 24/18° C., cool climate species at 20/16° C., both at day/night; 16 hours light; 65% humidity). The test plants are then grown on, in a glasshouse (greenhouse) under controlled conditions (warm climate species at 24/18° C., cool climate species at 20/16° C., both at day/night; 16 hours light; 65% humidity) and are watered twice daily. 15 days after application of the test herbicide (15DAA) (for post-emergence), and 20 days after application of the test herbicide (20DAA) (for pre-emergence), the test plants are evaluated visually, and an assessed percentage phytotoxicity score is given for each herbicidal application on each plant species (with 100%=total damage to plant; 0%=no damage to plant). The plant species tested are as follows: Alopecurus myosuroides (ALOMY), Avena fatua (AVEFA), Lolium perenne (LOLPE), Echinochloa crus-galli (ECHCG).

Assay [1] concerns Alopecurus myosuroides (ALOMY). Particulars: Rate 250 g/ha, 100%=total damage, 0%=no damage; for pest or weed control at 250 g/ha: Alopecurus myosuroides. How it is done:
as §1

In a further assay the test system is Lolium perenne (LOLPE). The settings on record: Rate 250 g/ha, 100%=total damage, 0%=no damage; for pest or weed control at 250 g/ha: Lolium perenne. On the procedure:
as §1

Assay [2] relates to Echinochloa crus-galli (ECHCG). The settings on record: Rate 250 g/ha, 100%=total damage, 0%=no damage; for pest or weed control at 250 g/ha: Echinochloa crus-galli. On the procedure:
as §1

Setting [3] is: post-emergence, visual assessment 15 DAA.
[4] abbreviates: pre-emergence, visual assessment 20 DAA.
Setting [5] is: post-emergence, 360 h, post-emergence, visual assessment 15 DAA, read-out: Post-emergence herbicidal activity (percentage phytotoxicity), AVEFA POST.
[6] abbreviates: pre-emergence, 480 h, pre-emergence, visual assessment 20 DAA, read-out: Pre-emergence herbicidal activity (percentage phytotoxicity), AVEFA PRE.
Where [7] appears, read: 360 h, post-emergence, visual assessment 15 DAA, read-out: Post-emergence herbicidal activity (percentage phytotoxicity), ALOMY POST.
The mark [8] stands for this setting: 480 h, pre-emergence, visual assessment 20 DAA, read-out: Pre-emergence herbicidal activity (percentage phytotoxicity), ALOMY PRE.
The mark [9] stands for this setting: post-emergence, 360 h, post-emergence, visual assessment 15 DAA, read-out: Post-emergence herbicidal activity (percentage phytotoxicity), LOLPE POST.
[10] abbreviates: pre-emergence, 480 h, pre-emergence, visual assessment 20 DAA, read-out: Pre-emergence herbicidal activity (percentage phytotoxicity), LOLPE PRE.
[11] abbreviates: post-emergence, 360 h, post-emergence, visual assessment 15 DAA, read-out: Post-emergence herbicidal activity (percentage phytotoxicity), ECHCG POST.
[12] abbreviates: pre-emergence, 480 h, pre-emergence, visual assessment 20 DAA, read-out: Pre-emergence herbicidal activity (percentage phytotoxicity), ECHCG PRE.

Read-outs that look alike come from different tables or passages of the source.

This note sets out measurements from patent US10301295B2, “Herbicidal compounds” (Syngenta Participations AG, priority 2014, dated 2019).

On to `Cc1cc(C)c(C2C(=O)CC(CCNC(=O)Nc3ccc(F)cn3)C2=O)c(C)c1.Cl` (stereo not shown) [Compound A93], for which the “Post-emergence herbicidal activity (percentage phytotoxicity), AVEFA POST” value with Avena fatua (AVEFA) (setting [3]) turned out to be 90%. In addition, the “Pre-emergence herbicidal activity (percentage phytotoxicity), AVEFA PRE” value with Avena fatua (AVEFA) (setting [4]) is 70%. Besides, in assay [1] (setting [3]), the “Post-emergence herbicidal activity (percentage phytotoxicity), ALOMY POST” value is 90%. In addition, in assay [1] (setting [4]), the “Pre-emergence herbicidal activity (percentage phytotoxicity), ALOMY PRE” value is listed as 90%. In the assay with Lolium perenne (LOLPE) (setting [3]), the “Post-emergence herbicidal activity (percentage phytotoxicity), LOLPE POST” value is given as 70%. Besides, in the assay with Lolium perenne (LOLPE) (setting [4]), the “Pre-emergence herbicidal activity (percentage phytotoxicity), LOLPE PRE” value stood at 90%. Also, the “Post-emergence herbicidal activity (percentage phytotoxicity), ECHCG POST” value in assay [2] (setting [3]) was 100%. Moreover, the “Pre-emergence herbicidal activity (percentage phytotoxicity), ECHCG PRE” value in assay [2] (setting [4]) is given as 90%.

Regarding `C=Cc1cc(C)cc(C)c1C1C(=O)CC(CCNC(=O)C2=NOC(C)(C)C2)C1=O` (racemic) [Compound A122, N-[2-[3-(2,4-dimethyl-6-vinyl-phenyl)-2,4-dioxo-cyclopentyl]ethyl]-5,5-dimethyl-4H-isoxazole-3-carboxamide], the pest or weed control at 250 g/ha is 90% in the assay with Avena fatua (AVEFA) (setting [5]); 0% in the assay with Avena fatua (AVEFA) (setting [6]); 90% in assay [1] (setting [7]); 0% in assay [1] (setting [8]); 80% with Lolium perenne (LOLPE) (setting [9]); 0% with Lolium perenne (LOLPE) (setting [10]). In addition, the pest or weed control at 250 g/ha in assay [2] (setting [11]) came out at 90%; in assay [2] (setting [12]), 0%.

As for `Cc1cc(C)c(C2C(=O)CC(CCNc3ncc(F)cn3)C2=O)c(C)c1` (stereo not shown) [Compound A121], the pest or weed control at 250 g/ha was determined as 100% in the assay with Avena fatua (AVEFA) (setting [5]); 100% in the assay with Avena fatua (AVEFA) (setting [6]); 100% in assay [1] (setting [7]); 100% in assay [1] (setting [8]); 90% in the assay with Lolium perenne (LOLPE) (setting [9]); 100% in the assay on Lolium perenne (LOLPE) (setting [10]). Moreover, the pest or weed control at 250 g/ha in assay [2] (setting [11]) and in assay [2] (setting [12]) was 100% each time.

As for `Cc1cc(-c2ncc(F)cn2)cc(C)c1C1C(=O)CC(CCNc2ccc(C(F)(F)F)cn2)C1=O` (stereo not shown) [Compound A120], the pest or weed control at 250 g/ha was 100% in the assay with Avena fatua (AVEFA) (setting [5]); 90% with Avena fatua (AVEFA) (setting [6]); 90% in assay [1] (setting [7]); 90% in assay [1] (setting [8]); 90% with Lolium perenne (LOLPE) (setting [9]); 90% in the assay on Lolium perenne (LOLPE) (setting [10]). In addition, the pest or weed control at 250 g/ha in assay [2] (setting [11]) came out at 100%; in assay [2] (setting [12]) it was 90%.

On to `Cc1cc(C)c(C2C(=O)CC(CCNc3ccc([N+](=O)[O-])cc3C(F)(F)F)C2=O)c(C)c1` (stereo not shown) [Compound A104], for which the pest or weed control at 250 g/ha in the assay with Avena fatua (AVEFA) (setting [5]) was 80%; with Avena fatua (AVEFA) (setting [6]), 70%; in assay [1] (setting [7]) it was 90%; in assay [1] (setting [8]), 60%; in the assay on Lolium perenne (LOLPE) (setting [9]), 90%; with Lolium perenne (LOLPE) (setting [10]), 80%. The pest or weed control at 250 g/ha was 70% in assay [2] (setting [11]) and 90% in assay [2] (setting [12]).

As to `Cc1cc(C)c(C2C(=O)CC(CCNC(=O)Nc3ccncn3)C2=O)c(C)c1` (stereo not shown) [Compound A95], the pest or weed control at 250 g/ha was 70% in the assay on Avena fatua (AVEFA) (setting [5]); 20% in the assay with Avena fatua (AVEFA) (setting [6]); 70% in assay [1] (setting [7]); 80% in assay [1] (setting [8]); 60% with Lolium perenne (LOLPE) (setting [9]); 70% with Lolium perenne (LOLPE) (setting [10]). The pest or weed control at 250 g/ha in assay [2] (setting [11]) and in assay [2] (setting [12]) was 70% in each case.

As to `Cc1cc(-c2ncc(Br)cn2)cc(C)c1C1C(=O)CC(CCNC(=O)C2=NOC(C)(C)C2)C1=O` (stereo not shown) [Compound A116], the pest or weed control at 250 g/ha turned out to be 100% in the assay on Avena fatua (AVEFA) (setting [5]); 90% with Avena fatua (AVEFA) (setting [6]); 100% in assay [1] (setting [7]); 90% in assay [1] (setting [8]); 100% in the assay on Lolium perenne (LOLPE) (setting [9]); 90% in the assay with Lolium perenne (LOLPE) (setting [10]). Also, the pest or weed control at 250 g/ha in assay [2] (setting [11]) is 100%; in assay [2] (setting [12]) it was 90%.

Regarding `Cc1cc(C)c(C2C(=O)CC(CCNc3ccc(C#N)cc3C(F)(F)F)C2=O)c(C)c1` (stereo not shown) [Compound A106], the pest or weed control at 250 g/ha was 90% in the assay with Avena fatua (AVEFA) (setting [5]); 40% in the assay on Avena fatua (AVEFA) (setting [6]); 90% in assay [1] (setting [7]); 70% in assay [1] (setting [8]); 90% with Lolium perenne (LOLPE) (setting [9]); 60% in the assay with Lolium perenne (LOLPE) (setting [10]). In addition, the pest or weed control at 250 g/ha in assay [2] (setting [11]) and in assay [2] (setting [12]) was 90% in each case.

As to `Cc1cc(-n2cc(Cl)cn2)cc(C)c1C1C(=O)CC(CCNc2ccc([N+](=O)[O-])cn2)C1=O` (stereo not shown) [Compound A99], the pest or weed control at 250 g/ha in the assay with Avena fatua (AVEFA) (setting [5]) is 90%; in the assay on Avena fatua (AVEFA) (setting [6]), 0%; in assay [1] (setting [7]) it was 70%; in assay [1] (setting [8]) it was 0%; in the assay on Lolium perenne (LOLPE) (setting [9]), 60%; with Lolium perenne (LOLPE) (setting [10]) it was 0%. Moreover, the pest or weed control at 250 g/ha turned out to be 100% in assay [2] (setting [11]) and 0% in assay [2] (setting [12]).

`CC#Cc1cc(C)c(C2C(=O)CC(CCNC(=O)C3=NOC(C)(C)C3)C2=O)c(C)c1` (stereo not shown) [Compound A108]: the pest or weed control at 250 g/ha in the assay with Avena fatua (AVEFA) (setting [5]) is 100%; in the assay on Avena fatua (AVEFA) (setting [6]), 90%; in assay [1] (setting [7]) it was 100%; in assay [1] (setting [8]), 100%; in the assay with Lolium perenne (LOLPE) (setting [9]) it was 100%; in the assay with Lolium perenne (LOLPE) (setting [10]), 100%. Also, the pest or weed control at 250 g/ha in assay [2] (setting [11]) and in assay [2] (setting [12]) was 100% throughout.

For the compound `Cc1cc(-c2ncc(Cl)cc2F)cc(C)c1C1C(=O)CC(CCNC(=O)C2=NOC(C)(C)C2)C1=O` (stereo not shown) [Compound A117], the pest or weed control at 250 g/ha was found to be 100% in the assay on Avena fatua (AVEFA) (setting [5]); 80% in the assay with Avena fatua (AVEFA) (setting [6]); 100% in assay [1] (setting [7]); 90% in assay [1] (setting [8]); 100% in the assay on Lolium perenne (LOLPE) (setting [9]); 80% with Lolium perenne (LOLPE) (setting [10]). The pest or weed control at 250 g/ha in assay [2] (setting [11]) amounted to 100%; in assay [2] (setting [12]), 80%.

As to `Cc1cc(C)c(C2C(=O)CC(CCNc3ncccc3C#N)C2=O)c(C)c1` (stereo not shown) [Compound A124], the pest or weed control at 250 g/ha stood at 60% in the assay with Avena fatua (AVEFA) (setting [5]); 40% in the assay with Avena fatua (AVEFA) (setting [6]); 80% in assay [1] (setting [7]); 60% in assay [1] (setting [8]); 80% in the assay on Lolium perenne (LOLPE) (setting [9]); 80% with Lolium perenne (LOLPE) (setting [10]). The pest or weed control at 250 g/ha in assay [2] (setting [11]) came to 100%; in assay [2] (setting [12]), 90%.

Consider `Cc1cc(-c2ncc(F)cc2F)cc(C)c1C1C(=O)CC(CCNC(=O)C2=NOC(C)(C)C2)C1=O` (stereo not shown) [Compound A111], for which the pest or weed control at 250 g/ha with Avena fatua (AVEFA) (setting [5]) was 100%; in the assay with Avena fatua (AVEFA) (setting [6]) it was 100%; in assay [1] (setting [7]) it was 100%; in assay [1] (setting [8]), 100%; in the assay with Lolium perenne (LOLPE) (setting [9]), 40%; in the assay with Lolium perenne (LOLPE) (setting [10]), 90%. Further, the pest or weed control at 250 g/ha came to 100% in assay [2] (setting [11]) and 90% in assay [2] (setting [12]).

Consider `Cc1cc(C)c(C2C(=O)CC(CCNc3ncc(Br)cn3)C2=O)c(C)c1` (stereo not shown) [Compound A126, 4-[2-[(5-bromopyrimidin-2-yl)amino]ethyl]-2-(2,4,6-trimethylphenyl)cyclopentane-1,3-dione], for which the pest or weed control at 250 g/ha was 90% with Avena fatua (AVEFA) (setting [5]); 100% with Avena fatua (AVEFA) (setting [6]); 90% in assay [1] (setting [7]); 80% in assay [1] (setting [8]); 90% in the assay with Lolium perenne (LOLPE) (setting [9]); 90% with Lolium perenne (LOLPE) (setting [10]). In addition, the pest or weed control at 250 g/ha turned out to be 90% in assay [2] (setting [11]) and 80% in assay [2] (setting [12]).
